Laboratory results taken from the NIST ThermoML archive (doi:10.1016/j.tca.2014.04.026).
± gives the expanded uncertainty stated by the source.

Assay: molar heat capacity at constant pressure; wn = mass fraction of the nth substance listed
Settings: 101 kPa, Liquid, Small sample (50 mg) DSC

## CCn1cc[n+](C)c1.N#C[C-](C#N)C#N [1-ethyl-3-methyl-1H-imidazolium tricyanomethanide] + CCn1cc[n+](C)c1.N#CN=C=[N-]
296.2 K, w2 = 0
  molar heat capacity at constant pressure: 357 ± 7 J/K/mol
296.2 K, w2 = 0.25
  molar heat capacity at constant pressure: 354 ± 7 J/K/mol
296.2 K, w2 = 0.5
  molar heat capacity at constant pressure: 344 ± 7 J/K/mol
296.2 K, w2 = 0.75
  molar heat capacity at constant pressure: 335 ± 7 J/K/mol
300.2 K, w2 = 0
  molar heat capacity at constant pressure: 360 ± 7 J/K/mol
300.2 K, w2 = 0.25
  molar heat capacity at constant pressure: 355 ± 7 J/K/mol
300.2 K, w2 = 0.5
  molar heat capacity at constant pressure: 346 ± 7 J/K/mol
300.2 K, w2 = 0.75
  molar heat capacity at constant pressure: 338 ± 7 J/K/mol
304.2 K, w2 = 0
  molar heat capacity at constant pressure: 362 ± 7 J/K/mol
304.2 K, w2 = 0.25
  molar heat capacity at constant pressure: 356 ± 7 J/K/mol
304.2 K, w2 = 0.5
  molar heat capacity at constant pressure: 347 ± 7 J/K/mol
304.2 K, w2 = 0.75
  molar heat capacity at constant pressure: 339 ± 7 J/K/mol
308.2 K, w2 = 0
  molar heat capacity at constant pressure: 364 ± 7 J/K/mol
308.2 K, w2 = 0.25
  molar heat capacity at constant pressure: 357 ± 7 J/K/mol
308.2 K, w2 = 0.5
  molar heat capacity at constant pressure: 348 ± 7 J/K/mol
308.2 K, w2 = 0.75
  molar heat capacity at constant pressure: 340 ± 7 J/K/mol
312.2 K, w2 = 0
  molar heat capacity at constant pressure: 366 ± 7 J/K/mol
312.2 K, w2 = 0.25
  molar heat capacity at constant pressure: 358 ± 7 J/K/mol
312.2 K, w2 = 0.5
  molar heat capacity at constant pressure: 350 ± 7 J/K/mol
312.2 K, w2 = 0.75
  molar heat capacity at constant pressure: 342 ± 7 J/K/mol
316.2 K, w2 = 0
  molar heat capacity at constant pressure: 367 ± 7 J/K/mol
316.2 K, w2 = 0.25
  molar heat capacity at constant pressure: 359 ± 7 J/K/mol
316.2 K, w2 = 0.5
  molar heat capacity at constant pressure: 352 ± 7 J/K/mol
316.2 K, w2 = 0.75
  molar heat capacity at constant pressure: 343 ± 7 J/K/mol
320.2 K, w2 = 0
  molar heat capacity at constant pressure: 369 ± 7 J/K/mol
320.2 K, w2 = 0.25
  molar heat capacity at constant pressure: 360 ± 7 J/K/mol
320.2 K, w2 = 0.5
  molar heat capacity at constant pressure: 352 ± 7 J/K/mol
320.2 K, w2 = 0.75
  molar heat capacity at constant pressure: 344 ± 7 J/K/mol
324.2 K, w2 = 0
  molar heat capacity at constant pressure: 370 ± 7 J/K/mol
324.2 K, w2 = 0.25
  molar heat capacity at constant pressure: 361 ± 7 J/K/mol
324.2 K, w2 = 0.5
  molar heat capacity at constant pressure: 354 ± 7 J/K/mol
324.2 K, w2 = 0.75
  molar heat capacity at constant pressure: 345 ± 7 J/K/mol
328.2 K, w2 = 0
  molar heat capacity at constant pressure: 372 ± 7 J/K/mol
328.2 K, w2 = 0.25
  molar heat capacity at constant pressure: 363 ± 7 J/K/mol
328.2 K, w2 = 0.5
  molar heat capacity at constant pressure: 356 ± 7 J/K/mol
328.2 K, w2 = 0.75
  molar heat capacity at constant pressure: 347 ± 7 J/K/mol
332.2 K, w2 = 0
  molar heat capacity at constant pressure: 374 ± 8 J/K/mol
332.2 K, w2 = 0.25
  molar heat capacity at constant pressure: 365 ± 7 J/K/mol
332.2 K, w2 = 0.5
  molar heat capacity at constant pressure: 358 ± 7 J/K/mol
332.2 K, w2 = 0.75
  molar heat capacity at constant pressure: 349 ± 7 J/K/mol
336.2 K, w2 = 0
  molar heat capacity at constant pressure: 377 ± 8 J/K/mol
336.2 K, w2 = 0.25
  molar heat capacity at constant pressure: 367 ± 7 J/K/mol
336.2 K, w2 = 0.5
  molar heat capacity at constant pressure: 360 ± 7 J/K/mol
336.2 K, w2 = 0.75
  molar heat capacity at constant pressure: 352 ± 7 J/K/mol
340.2 K, w2 = 0
  molar heat capacity at constant pressure: 379 ± 8 J/K/mol
340.2 K, w2 = 0.25
  molar heat capacity at constant pressure: 370 ± 7 J/K/mol
340.2 K, w2 = 0.5
  molar heat capacity at constant pressure: 362 ± 7 J/K/mol
340.2 K, w2 = 0.75
  molar heat capacity at constant pressure: 354 ± 7 J/K/mol
344.2 K, w2 = 0
  molar heat capacity at constant pressure: 382 ± 8 J/K/mol
344.2 K, w2 = 0.25
  molar heat capacity at constant pressure: 372 ± 7 J/K/mol
344.2 K, w2 = 0.5
  molar heat capacity at constant pressure: 365 ± 7 J/K/mol
344.2 K, w2 = 0.75
  molar heat capacity at constant pressure: 356 ± 7 J/K/mol
348.2 K, w2 = 0
  molar heat capacity at constant pressure: 384 ± 8 J/K/mol
348.2 K, w2 = 0.25
  molar heat capacity at constant pressure: 374 ± 8 J/K/mol
348.2 K, w2 = 0.5
  molar heat capacity at constant pressure: 367 ± 7 J/K/mol
348.2 K, w2 = 0.75
  molar heat capacity at constant pressure: 359 ± 7 J/K/mol
352.2 K, w2 = 0
  molar heat capacity at constant pressure: 387 ± 8 J/K/mol
352.2 K, w2 = 0.25
  molar heat capacity at constant pressure: 377 ± 8 J/K/mol
352.2 K, w2 = 0.5
  molar heat capacity at constant pressure: 370 ± 7 J/K/mol
352.2 K, w2 = 0.75
  molar heat capacity at constant pressure: 362 ± 7 J/K/mol
356.2 K, w2 = 0
  molar heat capacity at constant pressure: 390 ± 8 J/K/mol
356.2 K, w2 = 0.25
  molar heat capacity at constant pressure: 381 ± 8 J/K/mol
356.2 K, w2 = 0.5
  molar heat capacity at constant pressure: 373 ± 7 J/K/mol
356.2 K, w2 = 0.75
  molar heat capacity at constant pressure: 365 ± 7 J/K/mol
360.2 K, w2 = 0
  molar heat capacity at constant pressure: 393 ± 8 J/K/mol
360.2 K, w2 = 0.25
  molar heat capacity at constant pressure: 383 ± 8 J/K/mol
360.2 K, w2 = 0.5
  molar heat capacity at constant pressure: 376 ± 8 J/K/mol
360.2 K, w2 = 0.75
  molar heat capacity at constant pressure: 368 ± 7 J/K/mol
364.2 K, w2 = 0
  molar heat capacity at constant pressure: 396 ± 8 J/K/mol
364.2 K, w2 = 0.25
  molar heat capacity at constant pressure: 385 ± 8 J/K/mol
364.2 K, w2 = 0.5
  molar heat capacity at constant pressure: 380 ± 8 J/K/mol
364.2 K, w2 = 0.75
  molar heat capacity at constant pressure: 371 ± 7 J/K/mol
368.2 K, w2 = 0
  molar heat capacity at constant pressure: 399 ± 8 J/K/mol
368.2 K, w2 = 0.25
  molar heat capacity at constant pressure: 388 ± 8 J/K/mol
368.2 K, w2 = 0.5
  molar heat capacity at constant pressure: 383 ± 8 J/K/mol
368.2 K, w2 = 0.75
  molar heat capacity at constant pressure: 374 ± 8 J/K/mol
372.2 K, w2 = 0
  molar heat capacity at constant pressure: 403 ± 8 J/K/mol
372.2 K, w2 = 0.25
  molar heat capacity at constant pressure: 391 ± 8 J/K/mol
372.2 K, w2 = 0.5
  molar heat capacity at constant pressure: 387 ± 8 J/K/mol
372.2 K, w2 = 0.75
  molar heat capacity at constant pressure: 378 ± 8 J/K/mol
